Assay results as given in patent US20180153897A1, “RIBOFLAVIN FOR THE TREATMENT OF ISCHEMIC STROKE AND/OR OTHER GLUTAMATE EXCITOTOXICITY-ASSOCIATED DISEASES” (priority 2015, published 2018).
Structures can show the parent of a compound that is named as a salt. Where two headings read alike, the source gives them in different places.

What was measured:
recombinant human GOT = target: T1, recombinant human GOT (Homo sapiens, UniProt P17174); test: GOT activity assay (inhibition of glutamate formation), photometric kit; type: biochemical; conditions: for Maximum of inhibition of glutamate formation in confirmatory assay (%): confirmatory dose-response assay
T1 construct: purchased Abcam ab99147
T1 sequence (P17174 whole entry): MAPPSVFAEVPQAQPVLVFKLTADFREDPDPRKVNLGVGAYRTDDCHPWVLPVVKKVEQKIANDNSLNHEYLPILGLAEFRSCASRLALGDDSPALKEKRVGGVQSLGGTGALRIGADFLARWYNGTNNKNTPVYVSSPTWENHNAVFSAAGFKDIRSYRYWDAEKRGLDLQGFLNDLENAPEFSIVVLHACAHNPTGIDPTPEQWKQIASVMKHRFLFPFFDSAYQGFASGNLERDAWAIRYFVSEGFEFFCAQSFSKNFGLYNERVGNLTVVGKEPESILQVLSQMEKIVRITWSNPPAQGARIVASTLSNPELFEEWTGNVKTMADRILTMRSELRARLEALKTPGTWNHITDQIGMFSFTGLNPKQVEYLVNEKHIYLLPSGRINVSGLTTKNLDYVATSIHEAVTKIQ

[1] = target: T2, succinate dehydrogenase (SDH) (Homo sapiens, UniProt P31040); test: Complex II Enzyme Activity Microplate Assay (SDH inhibition); type: biochemical; conditions: dose-response curve, FIG. 1; enzyme extracted from HepG2 cells
T2 construct: endogenous in cells; host or cells: HepG2 (ATCC HB-8065); complex captured with Abcam Complex II Enzyme Activity Microplate Assay ab109908
T2 sequence (P31040 43-664): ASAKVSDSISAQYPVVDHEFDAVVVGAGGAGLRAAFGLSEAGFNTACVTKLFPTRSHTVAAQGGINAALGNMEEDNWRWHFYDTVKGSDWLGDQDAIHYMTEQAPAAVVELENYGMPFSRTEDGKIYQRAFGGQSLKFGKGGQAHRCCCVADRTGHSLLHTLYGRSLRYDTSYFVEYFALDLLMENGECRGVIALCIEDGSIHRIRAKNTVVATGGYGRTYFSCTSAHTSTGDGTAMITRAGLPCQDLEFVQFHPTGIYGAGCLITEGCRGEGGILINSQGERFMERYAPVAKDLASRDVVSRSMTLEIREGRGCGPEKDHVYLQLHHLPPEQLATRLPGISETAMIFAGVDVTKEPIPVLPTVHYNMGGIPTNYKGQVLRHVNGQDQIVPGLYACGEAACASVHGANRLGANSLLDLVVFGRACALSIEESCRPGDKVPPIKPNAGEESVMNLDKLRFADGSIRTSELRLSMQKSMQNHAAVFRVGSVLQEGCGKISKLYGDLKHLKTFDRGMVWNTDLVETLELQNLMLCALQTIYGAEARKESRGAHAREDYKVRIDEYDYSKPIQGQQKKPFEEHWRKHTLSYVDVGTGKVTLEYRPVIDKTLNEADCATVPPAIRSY
T2 sequence (P21912 29-280 partner): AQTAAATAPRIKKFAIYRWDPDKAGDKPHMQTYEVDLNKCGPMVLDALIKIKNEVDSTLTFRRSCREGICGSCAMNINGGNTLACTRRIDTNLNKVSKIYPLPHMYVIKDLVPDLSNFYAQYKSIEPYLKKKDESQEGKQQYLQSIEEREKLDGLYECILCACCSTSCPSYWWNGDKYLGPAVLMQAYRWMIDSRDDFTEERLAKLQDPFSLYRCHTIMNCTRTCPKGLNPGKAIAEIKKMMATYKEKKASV
T2 sequence (Q99643 30-169 partner): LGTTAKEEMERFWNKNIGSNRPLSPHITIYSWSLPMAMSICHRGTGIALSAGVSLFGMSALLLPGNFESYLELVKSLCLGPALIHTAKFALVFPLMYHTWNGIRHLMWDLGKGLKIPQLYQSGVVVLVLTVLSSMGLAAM
T2 sequence (O14521 57-159 partner): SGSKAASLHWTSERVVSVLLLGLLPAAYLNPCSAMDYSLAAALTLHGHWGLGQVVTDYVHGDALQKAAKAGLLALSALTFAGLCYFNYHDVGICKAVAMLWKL
From the text: To evaluate possible toxic effects on SDH, a secondary assay was set up, using Complex II Enzyme Activity Microplate Assay (from Abcam, ref. ab109908), based on the detection of 2,6-diclorophenolindophenol (DCPID), blue, which is reduced in contact with Ubiquinol, turning colorless and involving the measurement of a decrease in absorbance at 595 nm. The enzyme was extracted from HepG2 cells (ATCC, ref. HB-8065), following manufacturer's instructions.

blood glutamate [2] = test: Blood glutamate lowering in healthy animals; type: in vivo, rat; conditions: healthy rats; for percentage of blood glutamate lowering (respect to basal levels): riboflavin 1, 10 and 50 mg/Kg i.v.
Procedure: Experimental protocols were approved by the local Animal Care Committee according to the European Union (EU) rules (86/609/CEE, 2003/65/CE and 2010/63/EU). Male Sprague-Dawley rats (Harlan Laboratories, Barcelona, Spain) with an average weight of 350 g were used. Rats were watered and fed ad libitum. The dose-response effect of riboflavin on blood glutamate lowering was determined in healthy animals. Three (3) doses of riboflavin were tested (i.v.), 1, 10 and 50 mg/Kg (weight of animal). As control group was used animals treated with saline (0.9% of NaCl, pH adjusted to 7.4), and as positive control group, animals treated with oxaloacetate 35 mg/Kg. […] A total of 6 animals per group were included in this study. […] With this purpose, dose of 35mg/Kg (average weight of animals: 350 g) of oxaloacetate (Ref 171263, Sigma) was prepared in a saline solution (0.9% of NaCl, pH adjusted to 7.4) at a final concentration of 12.25 mg/mL. Dose of 15 mg/Kg of oxaloacetate was prepared in saline solution (0.9% of NaCl, pH adjusted to 7.4) at a final concentration of 5.25 mg/mL. Dose of 1 mg/Kg of riboflavin (Ref. 4500, Sigma) initially dissolved in a minimal amount of dimethyl sulfoxide (DMSO) and then dissolved in a saline solution (0.9% of NaCl, pH adjusted to 7.4) at a final concentration of 0.35 mg/mL. […] Serum samples were collected in test tubes, centrifuged at 3000 r.p.m. for 7 min, serum was removed and immediately frozen and stored at −80 ° C. Serum glutamate concentration was determined by means of Glutamate Assay Kit (Abnova, Taipei City, Taiwan) following the manufacturer's technical specifications.

blood glutamate [3] = test: Blood glutamate in ischemic (MCAO) animals; type: in vivo, rat; conditions: MCAO rats, 2 hours after administration
Procedure: Treatments were administered after artery reperfusion (45 min after occlusion). A total of 10 animals per group were included in this study. […] Infarct volume analysis were evaluated during the occlusion (30 min after occlusion), and 24h and 7 days after ischemia induction. Infarct volume determined at 30 min after artery occlusion (analyzed by diffusion weighted imaging, DWI) (Perez-Mato, M., et al., Cell Death Dis., 2014, 5:e992) was determined before treatments administration to confirm that all animals included in the study were submitted to the same ischemic insult. These values were used as basal infarct volume. […] With this purpose, dose of 35mg/Kg (average weight of animals: 350 g) of oxaloacetate (Ref 171263, Sigma) was prepared in a saline solution (0.9% of NaCl, pH adjusted to 7.4) at a final concentration of 12.25 mg/mL. […] Dose of 1 mg/Kg of riboflavin (Ref. 4500, Sigma) initially dissolved in a minimal amount of dimethyl sulfoxide (DMSO) and then dissolved in a saline solution (0.9% of NaCl, pH adjusted to 7.4) at a final concentration of 0.35 mg/mL. […] Serum samples were collected in test tubes, centrifuged at 3000 r.p.m. for 7 min, serum was removed and immediately frozen and stored at −80 ° C. Serum glutamate concentration was determined by means of Glutamate Assay Kit (Abnova, Taipei City, Taiwan) following the manufacturer's technical specifications. […]

MCAO rats = test: Infarct volume by MRI in MCAO rats; type: in vivo, rat; conditions: riboflavin 1 mg/Kg, 24 h and 7 days after ischemia
Procedure: Four (4) experimental groups were performed: 1) a control group treated with saline (0.9% of NaCl, pH adjusted to 7.4), 2) a group treated with riboflavin 1 mg/Kg, 3) a group treated with riboflavin 1 mg/Kg in combination with dose of oxaloacetate a non-effective (15 mg/Kg) and 4) a positive control group treated with oxaloacetate 35 mg/Kg. […] Treatments were administered after artery reperfusion (45 min after occlusion). A total of 10 animals per group were included in this study. […] Infarct volume analysis were evaluated during the occlusion (30 min after occlusion), and 24h and 7 days after ischemia induction. Infarct volume determined at 30 min after artery occlusion (analyzed by diffusion weighted imaging, DWI) (Perez-Mato, M., et al., Cell Death Dis., 2014, 5:e992) was determined before treatments administration to confirm that all animals included in the study were submitted to the same ischemic insult. These values were used as basal infarct volume. […] Infarct volume, also referred herein as infarct size, was assessed by means of magnetic resonance imaging (MRI). […] Infarct volumes were determined from (ADC maps) and T2-weighted images by manually selecting areas of reduced ADC values or hyperintense T2 signal by a researcher blinded to the animal protocols.

[4] = inhibition of glutamate formation, confirmatory assay, read-out: IC50(μM) in confirmatory assay
[5] = dose-response curve, FIG. 1, read-out: IC50 (GOT)

Row | Compound | Maximum of inhibition of glutamate formation in confirmatory assay (%) (recombinant human GOT) | IC50 (recombinant human GOT; [4]) | IC50 (recombinant human GOT; [5]) | IC50 [1] | other results
1 | (−)-3-(3,4-Dihydroxyphenyl)-2-methyl-L-alanine sesquihydrate [CBG000361] | 38.5% | 117 µM | – | – | –
2 | CN1CCc2cccc3c2[C@H]1Cc1ccc(O)c(O)c1-3.CN1CCc2cccc3c2[C@H]1Cc1ccc(O)c(O)c1-3.Cl.Cl.O [CBG000083, R-(−)-Apomorphine hydrochloride hemihydrate] | 56.5% | 58.1 µM | – | – | –
3 | O=C(O)CC(=O)C(=O)O [oxaloacetate, 3-carboxy-3-oxopropanoate] | – | – | 130 µM | 1.8 µM | percentage of glutamate levels reduction (blood glutamate [2]; oxaloacetate 35 mg/Kg i.v., 2, 4 and 6 hours): ≤ 40%; reduction of blood glutamate levels (blood glutamate [2]; oxaloacetate 35 mg/Kg i.v., 30 min): no effect; reduction of blood glutamate levels respect to basal levels (blood glutamate [3]; oxaloacetate 35 mg/Kg at reperfusion): about 30%
4 | Cc1cc2nc3c(=O)[nH]c(=O)nc-3n(C[C@H](O)[C@H](O)[C@H](O)CO)c2cc1C [CBG000592, 7,8-dimethyl-10-[(2S,3S,4R)-2,3,4,5-tetrahydroxypentyl]benzo[g]pteridine-2,4-dione] | 63% | 1.96 µM | 1.9 µM | 10.8 µM | percentage of blood glutamate lowering (respect to basal levels) (blood glutamate [2]; 30 min): about 25%; percentage of blood glutamate lowering (respect to basal levels) (blood glutamate [2]; 2 h): about 50%; percentage of blood glutamate lowering (respect to basal levels) (blood glutamate [2]; 4 h): 60%; percentage of blood glutamate lowering (respect to basal levels) (blood glutamate [2]; 6 h): 50%; reduction of blood glutamate levels respect to basal levels (blood glutamate [3]; riboflavin 1 mg/Kg at reperfusion): about 30%; lesion size (infarct volume) versus control (MCAO rats): significant (p<0.001) decrease of lesion size
5 | Doxycycline hyclate [CBG000814] | 32% | 15.1 µM | – | – | –
6 | CC(CCc1ccc(O)cc1)NCCc1ccc(O)c(O)c1 (centres unmarked) [CBG000332, Dobutamine hydrochloride] | 35.5% | 81.7 µM | – | – | –
